Laboratory results reported in patent publication US20080194637A1, “Small organic molecule regulators of cell proliferation” (Curis, Inc., priority 2006, published 2008).
Where a name gives a salt, the structure may show the parent alone. Read-outs that look alike come from different tables or passages of the source.

Tests used:
C57BL/6 male mice = experiment: C57BL/6 hair growth after single topical dose; type: in vivo, mouse; settings: shaved lower back, dosed topically once, visually graded for melanogenesis and hair regrowth
Method: (§1) A mouse model of male pattern baldness is used to investigate the effectiveness of the present compounds for growing hair. Agonists for the sonic hedgehog pathway that act by binding and activating Smoothened were tested in a formulation of 50:30:20 PG:EtOH:water or 5:95 DMSO:acetone vehicle. C57BL/6 male mice (48-52 days old on arrival) from Charles River Labs were used on the study. The mice were housed and cared for according to established procedures. Food and water were ad libitum. On Day 0, the mice were shaved on their lower back, an area of ˜1.5 inches×˜2 inches with Wahl clippers using a surgical blade. On day −3, the mice were anesthetized with isoflurane, their back was rinsed with a pad of 70% ethanol, a placebo pellet or a DHT pellet (2.5 mg 21 day pellet) were implanted subcutaneously between the shoulder blades with a 10 gauge trochar. DHT pellet transplantation results in maintenance of existing hair follicles in the resting (telogen) phase. The hole was stapled with a sterile autoclip and the mice were returned to their cage after awaking. The mice were dosed topically once and visually graded daily, except weekends, for melanogenesis and hair regrowth of fur in the dosed area (Table 4).

[1] = test system: C57BL/6 male mice with DHT pellet; experiment: DHT-induced alopecia mouse model of male pattern baldness; type: in vivo; settings: C57BL/6 male mice with subcutaneous DHT pellet (2.5 mg 21 day), dosed topically once, visually graded for hair regrowth
Method: as §1
In the absence of treatment with the present compounds, the follicles remain in telogen rather than following the normal time course of the mouse hair cycle.

[2] = test system: sonic hedgehog pathway, HepM human embryonic palatal mesenchymal cells; experiment: Human hedgehog reporter assay HEPM-GliLuc (HGL); type: cell-based; settings: gli-luciferase reporter
From the text: (§2) Mouse (TM3: mouse Leydig cells; S12: mouse embryonic mesenchymal cells) and human (Daoy: human medulloblastoma cell; HepM: human embryonic palatal mesenchymal cell) cell lines are used to screen small molecules for their ability to modulate the activity of the sonic hedgehog pathway (Table 1, Table 2, and Table 3). Stable hedgehog pathway reporter cell lines are established by specific antibiotic selection following transfection of a reporter plasmid containing a luciferase gene located directly downstream from the gli promoter. Consequently, any observable changes in cellular luciferase activity may be attributed to changes in sonic hedgehog pathway activity in mouse and human cells, respectively, since gli is the major by-product of this pathway. To calculate activity, we generate an eleven point dose curve for each compound using 1:3 dilutions in 96 well assay plates. Each plate tested also contains low and high control to establish maximal pathway activation so to establish/compare a percentage activation of each tested compound (AMAX) on respective plates. Also we calculate EC50 values, or a concentration where the pathway will be exactly 50% activated, for each tested compound to determine potency. In these cell lines, compounds that register >20% AMAX values are considered active.
(§3) Stable hedgehog pathway reporter cell lines are established following specific antibiotic selection following transfection of a reporter plasmid In short, typically cells are plated in MicroTiter-plates at 10,000-20,000 cells per well, in growth media (containing 10%-20% FBS). After 48-72 hrs (HGL and DGL respectively) the media in the assay plates is switched to low-serum containing media (0.5% FBS). At that time compounds are added (at 1-5 μM) to the assay plates, in the presence or absence of hedgehog protein (octyl-modified version; 1-5 ng/ml). After another 24 hrs of incubation, the media from the assay plates is discarded and replaced with luciferase assay-mix. Subsequently, plates are incubated at RT for ˜15-30 mins and then read in a luminometer. [note: addition of the Hedgehog protein, although not critical, will sensitize the assay allowing the identification of weak actives].

[3] = test system: sonic hedgehog pathway, TM3 mouse Leydig cells; experiment: Hedgehog pathway Gli-luciferase reporter assay in TM3 cells; type: cell-based
From the text: as §2, §3

[4] = test system: sonic hedgehog pathway, S12 mouse embryonic mesenchymal cells; experiment: Hedgehog pathway Gli-luciferase reporter assay in S12 cells; type: cell-based
From the text: as §2, §3

[5] = test system: sonic hedgehog pathway, Daoy human medulloblastoma cells; experiment: Human hedgehog reporter assay Daoy-GliLuc (DGL); type: cell-based
From the text: as §2, §3

[6] = HepM human embryonic palatal mesenchymal cells, Table 1
[7] = S12 mouse embryonic mesenchymal cells, Table 1, read-out: S12 Avg. EC50
[8] = Daoy human medulloblastoma cells, gli-luciferase reporter, Table 1, read-out: Daoy Avg. EC50
[9] = S12 mouse cells, Table 2, read-out: Mouse S12 Avg. EC50
[10] = Daoy human cells, Gli-Luc, Table 2, read-out: Human Daoy (Gli-Luc) Avg. EC50
[11] = Daoy human cells, gli-luciferase reporter, Table 3, read-out: Daoy Avg. EC50

For `CN[C@H]1CC[C@H](N(Cc2cc(-c3ccccc3)ccc2OC)C(=O)c2sc3ccccc3c2Cl)CC1`, the “C57BL/6 Hair Growth” value (C57BL/6 male mice) was “yes” and the “Androgenetic Alopecia” value [1] was “yes”.
For `CN[C@H]1CC[C@H](N(Cc2cc(-c3cc(C)nc(C)c3)ccc2OC)C(=O)c2sc3ccccc3c2Cl)CC1`, the “C57BL/6 Hair Growth” value (C57BL/6 male mice) was “yes” and the “Androgenetic Alopecia” value [1] was “yes”.
For `CN[C@H]1CC[C@H](N(Cc2cc(-c3ccc(C(N)=O)cc3)ccc2OC)C(=O)c2sc3c(F)ccc(F)c3c2Cl)CC1`, the “C57BL/6 Hair Growth” value (C57BL/6 male mice) was “yes” and the “Androgenetic Alopecia” value [1] was “yes”.
With `CN[C@H]1CC[C@H](N(Cc2cc(-c3ccnc(C)c3)ccc2OC)C(=O)c2sc3ccccc3c2Cl)CC1` the “C57BL/6 Hair Growth” value (C57BL/6 male mice) was “yes” and the “Androgenetic Alopecia” value [1] was “yes”.
For `CN[C@H]1CC[C@H](N(Cc2cc(-c3ccc(N)nc3)ccc2OC)C(=O)c2sc3cccc(F)c3c2Cl)CC1`, the “C57BL/6 Hair Growth” value (C57BL/6 male mice) was “yes” and the “Androgenetic Alopecia” value [1] was “yes”.
For `CN[C@H]1CC[C@H](N(Cc2cc(-c3ccc(S(C)(=O)=O)cc3)ccc2OC)C(=O)c2sc3ccccc3c2Cl)CC1`, the “C57BL/6 Hair Growth” value (C57BL/6 male mice) was “yes” and the “Androgenetic Alopecia” value [1] was “yes”.
With `CCOc1ccc(-c2ccc(C)nc2)cc1CN(C(=O)c1sc2ccccc2c1Cl)[C@H]1CC[C@H](NC)CC1` the “C57BL/6 Hair Growth” value (C57BL/6 male mice) was “yes”.
In the case of `CN[C@H]1CC[C@H](N(Cc2cc(-c3ccnc(C(=O)N(C)C)c3)ccc2OC)C(=O)c2sc3c(F)ccc(F)c3c2Cl)CC1`, the “C57BL/6 Hair Growth” value (C57BL/6 male mice) is reported as “yes” and the “Androgenetic Alopecia” value [1] is reported as “yes”.
`CNC1CCC(N(Cc2cc(-c3ccncc3)ccc2OC)C(=O)c2sc3ccccc3c2Cl)CC1` (stereo not drawn) was tested, and the “C57BL/6 Hair Growth” value (C57BL/6 male mice) was “yes” and the “Androgenetic Alopecia” value [1] was “yes”.
`CN[C@H]1CC[C@H](N(Cc2cc(-c3ccc(NS(C)(=O)=O)nc3)ccc2OC)C(=O)c2sc3c(F)ccc(F)c3c2Cl)CC1` was tested, and the “C57BL/6 Hair Growth” value (C57BL/6 male mice) was “yes”.
In the case of `CCOc1ccc(-c2ccc(C#N)cc2)cc1CN(C(=O)c1sc2ccccc2c1Cl)[C@H]1CC[C@H](NC)CC1`, the “C57BL/6 Hair Growth” value (C57BL/6 male mice) is reported as “yes”.
`CN[C@H]1CC[C@H](N(Cc2cc(-c3ccnc(C(=O)OC)c3)ccc2OC)C(=O)c2sc3c(F)ccc(F)c3c2Cl)CC1` was tested, and the “C57BL/6 Hair Growth” value (C57BL/6 male mice) was “yes” and the “Androgenetic Alopecia” value [1] was “yes”.
With `CN[C@H]1CC[C@H](N(Cc2cc(-c3ccnc(C(=O)O)c3)ccc2OC)C(=O)c2sc3c(F)ccc(F)c3c2Cl)CC1` the “C57BL/6 Hair Growth” value (C57BL/6 male mice) was “no”.
With `CN[C@H]1CC[C@@H](N(Cc2cc(-c3cccnc3)ccc2OC)C(=O)c2sc3cccc(F)c3c2Cl)CC1` [360 (R16), 3-Chloro-4-fluoro-benzo[b]thiophene-2-carboxylic acid (2-methoxy-5-pyridin-3-yl-benzyl)-(4-methylamino-cyclohexyl)-amide dihydrochloride] the EC50 [2, 6] was under 50 nM, the EC50 ([3]; Table 1) was under 50 nM and the EC50 [4, 7] was under 50 nM. For the same compound, the EC50 [5, 8] was under 50 nM.
Work on `CN[C@H]1CC[C@@H](N(Cc2cc(-c3ccc(C(C)=O)cc3)ccc2OC)C(=O)c2sc3ccccc3c2Cl)CC1` [Compound 303, 3-Chloro-benzo[b]thiophene-2-carboxylic acid (4′-acetyl-4-methoxy-biphenyl-3-ylmethyl)-(4-methylamino-cyclohexyl)-amide hydrochloride] yielded an EC50 [2, 6] of under 50 nM, an EC50 ([3]; Table 1) of under 50 nM and an EC50 [4, 7] of under 50 nM. For the same compound, the EC50 [5, 8] was under 50 nM.
With `CN[C@H]1CC[C@@H](N(Cc2cc(-c3cccc(SC)c3)ccc2OC)C(=O)c2sc3c(F)ccc(F)c3c2Cl)CC1` [Compound 372, 3-Chloro-4,7-difluoro-benzo[b]thiophene-2-carboxylic acid (4-methoxy-3′-methylsulfanyl-biphenyl-3-ylmethyl)-(4-methylamino-cyclohexyl)-amide hydrochloride] the EC50 [4, 9] was under 50 nM and the EC50 [5, 10] was under 50 nM.
With `CN[C@H]1CC[C@@H](N(Cc2cc(-c3ccc(SC)cc3)ccc2OC)C(=O)c2sc3c(F)ccc(F)c3c2Cl)CC1` [Compound 373, 3-Chloro-4,7-difluoro-benzo[b]thiophene-2-carboxylic acid (4-methoxy-4′-methylsulfanyl-biphenyl-3-ylmethyl)-(4-methylamino-cyclohexyl)-amide hydrochloride] the EC50 [4, 9] was under 50 nM and the EC50 [5, 10] was under 50 nM.
`CN[C@H]1CC[C@@H](N(Cc2cc(-c3cc[n+]([O-])cc3)ccc2OC)C(=O)c2sc3c(F)ccc(F)c3c2Cl)CC1` [Compound 374, 4-(3-((3-chloro-4,7-difluoro-N-((1s,4s)-4-(methylamino)cyclohexyl)benzo[b]thiophene-2-carboxamido)methyl)-4-methoxyphenyl)pyridine 1-oxide] showed an EC50 [4, 9] of under 50 nM and an EC50 [5, 10] of under 50 nM.
For `CN[C@H]1CC[C@@H](N(Cc2cc(-c3cccc([S+](C)[O-])c3)ccc2OC)C(=O)c2sc3c(F)ccc(F)c3c2Cl)CC1` (stereo partly drawn) [Compound 376, 3-Chloro-4,7-difluoro-benzo[b]thiophene-2-carboxylic acid (3′-methanesulfinyl-4-methoxy-biphenyl-3-ylmethyl)-(4-methylamino-cyclohexyl)-amide trifluoroacetate], the EC50 [4, 9] was under 50 nM and the EC50 [5, 10] was under 50 nM.
`CN[C@H]1CC[C@@H](N(Cc2cc(-c3ccc([S+](C)[O-])cc3)ccc2OC)C(=O)c2sc3c(F)ccc(F)c3c2Cl)CC1` (stereo partly drawn) [Compound 377, 3-Chloro-4,7-difluoro-benzo[b]thiophene-2-carboxylic acid (4′-methanesulfinyl-4-methoxy-biphenyl-3-ylmethyl)-(4-methylamino-cyclohexyl)-amide trifluoroacetate] showed an EC50 [4, 9] of under 50 nM and an EC50 [5, 10] of under 50 nM.
`CN[C@H]1CC[C@H](N(Cc2cc(-c3ccc(N)nc3C)ccc2OC)C(=O)c2sc3ccccc3c2Cl)CC1` [Compound 398, 3-Chloro-benzo[b]thiophene-2-carboxylic acid [5-(6-amino-2-methyl-pyridin-3-yl)-2-methoxy-benzyl]-(4-methylamino-cyclohexyl)-amide dihydrochloride] showed an EC50 ([2]; HepM human cells, Table 3) of 1000 to 2500 nM, an EC50 ([3]; Table 3) of 1000 to 2500 nM and an EC50 [5, 11] of 250 to 1000 nM.
`COc1ccc(-c2cc[n+](C)cc2)cc1CN(C(=O)c1sc2c(F)ccc(F)c2c1Cl)[C@H]1CC[C@@H](N)CC1` [Compound 418] showed an EC50 ([4]; S12 mouse embryonic mesenchymal cells, Table 3, read-out: S12 Avg. EC50) of 1000 to 2500 nM and an EC50 [5, 11] of under 50 nM.
